Among the data in publication PMC11840788, “3,3′-Diindolylmethane (DIM): A Molecular Scaffold for Inhibition of WWP1 and WWP2, Members of the NEDD4 Family HECT E3 Ligases” (ACS Omega, 2025) are ΔTm values, retold here.

The assay concerns the target T1, WWP1-2L34H (Homo sapiens, UniProt Q9H0M0).
T1 construct: WWP1-WW2-2,3-linker-WW3-WW4-HECT (WWP1-2L34H); His-Trx (3C site) (N, cleaved yes); made in house; host or cells: E. coli BL21-CodonPlus RP (plasmid pET32a-WWP1-2L34H, gift of Dr Wenyu Wen)
The assay is described as follows: differential scanning fluorimetry (DSF), WWP1. The conditions noted are these: 100 μM compound, 0.1% DMSO, Boltzmann fit. It is filed as binding. The text has this: Differential scanning fluorimetry (DSF) was utilized to initially assess interactions of I3C with both WWP1 and WWP2. Although binding of I3C to WWP1 has been reported previously,[25] we wanted to determine whether such interactions are observed with a protein construct containing the WW2 domain, given its proximity to the proposed exo binding site. In this regard, the WWP1-WW2-2,3-linker-WW3-WW4-HECT (WWP1-2L34H) and WWP2-WW2-2,3-linker-HECT (WWP2-LH) constructs were chosen (SI Figure S2) and DSF assays performed using 100 μM I3C (0.1% DMSO) with midpoint melting temperature (Tm) determined by fitting a Boltzmann regression to the melting curve (Figure 2A). Three independent repeat experiments were performed. […] This is in marked contrast to that seen when using the simple WWP1 HECT domain as a target.[30]
A 96 well-plate (MicroAmp Optical) was loaded with 18 μL of 3.8 μM WWP1-2L34H and 2.5 μM WWP2-LH, in their respective buffers (SI Table S5) containing 5 × SYPRO orange dye. […] The plates were briefly centrifuged before the assay was run using an ABI 7500 RT-PCR following the melt curve using ROX (575 nm) as the “preset” fluorescence dye. […] The midpoint melting temperature (Tm) was calculated using a Boltzmann fit to the fluorescence curve using Protein Thermal Shift Software v1.4 (ThermoFisher). […]
Background: In DSF a fluorescence change marks the thermal transition of the protein.

T1 sequence (Q9H0M0 379-922 limits assumed): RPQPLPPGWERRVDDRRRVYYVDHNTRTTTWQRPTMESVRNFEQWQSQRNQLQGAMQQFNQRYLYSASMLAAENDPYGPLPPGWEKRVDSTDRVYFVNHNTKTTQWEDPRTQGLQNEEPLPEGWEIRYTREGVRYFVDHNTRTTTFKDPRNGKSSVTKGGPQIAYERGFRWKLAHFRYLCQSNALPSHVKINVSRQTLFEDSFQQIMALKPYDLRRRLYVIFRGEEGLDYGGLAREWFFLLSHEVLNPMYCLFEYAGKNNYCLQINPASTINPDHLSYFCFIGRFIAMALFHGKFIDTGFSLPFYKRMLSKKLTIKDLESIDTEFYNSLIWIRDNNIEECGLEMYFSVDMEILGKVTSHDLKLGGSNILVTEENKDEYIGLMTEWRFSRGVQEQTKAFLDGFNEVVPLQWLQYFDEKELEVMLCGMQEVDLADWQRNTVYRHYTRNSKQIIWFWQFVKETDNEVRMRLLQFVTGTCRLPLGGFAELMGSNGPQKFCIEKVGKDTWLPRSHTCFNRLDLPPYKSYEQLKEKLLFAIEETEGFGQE

`OCc1c[nH]c2ccccc12` [Compound I3C, Indole-3-carbinol, reference compound]: the ΔTm – broadly, the shift of the melting midpoint relative to a reference – at 100 µM was 0.47 ± 0.15 °C.
